According to patent US20250228239A1, “MOLECULES HAVING PESTICIDAL UTILITY, AND INTERMEDIATES, COMPOSITIONS, AND PROCESSES, RELATED THERETO” (priority 2024, published 2025):

What was measured:
Format in all cases: in vivo
[1] = system: Beet Armyworm (Spodoptera exigua, LAPHEG); experiment: Bioassays on Beet Armyworm (BAW), 128-well diet tray assay; conditions: Spodoptera exigua; Table ABC: Biological Results; species BAW; read-out: BAW
Outline: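 Eight diet wells per compound were treated at 50 μg/cm^2 (acetone-water 90:10), dried, then infested with 1–5 second-instar larvae each. After five to seven days at 25 °C under 14:10 photoperiod, mortality was scored and averaged across wells.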

[2] = system: Cabbage Looper (Trichoplusia ni, TRIPNI); experiment: Bioassays on Cabbage Looper (CL), 128-well diet tray assay; conditions: Trichoplusia ni; Table ABC: Biological Results; species CL; read-out: CL
Outline: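 Second-instar larvae (1–5 per well) placed on artificial diet surface-treated with 50 μg/cm^2 test molecule applied in 90:10 acetone-water and dried. Held at 25° C., 14:10 light-dark, for five to seven days. Percent mortality scored per well and averaged over eight wells.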

[3] = system: Yellow Fever Mosquito (Aedes aegypti, AEDSAE); conditions: Table ABC: Biological Results; species YFM
Outline: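 Compounds from DMSO master plates (4000 ppm stock) diluted in 90:10 water/acetone, then dispensed into six replicate plates and infested with ~1-day-old Aedes aegypti larvae in liver-powder water. Held covered at room temperature for 3 days; each well scored for larval mortality and graded on a rating scale.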

SMILES	pest or weed control at 50 µg/cm2 [1] [%]	pest or weed control at 50 µg/cm2 [2] [%]	YFM [3]
O=C(Nc1ccc(F)c(NC(=O)C2CC=CCC2)c1F)c1cc(NC(=O)[C@H]2[C@H](c3ccc(F)c(C(F)(F)F)c3)C2(Cl)Cl)ccc1Cl (stereo partly drawn) [F1297, 2-Chloro-N-(3-(cyclohex-3-ene-1-carboxamido)-2,4-difluorophenyl)-5-((1R,3R)-2,2-dichloro-3-(4-fluoro-3-(trifluoromethyl)phenyl)cyclopropane-1-carboxamido)benzamide]	50 to 100	50 to 100	A (80–100)
O=C(Nc1c(F)ccc(NC(=O)c2cc(NC(=O)[C@H]3[C@H](c4ccc(F)c(C(F)(F)F)c4)C3(Cl)Cl)ccc2Cl)c1F)C(=O)c1ccccc1 [F1298, 2-Chloro-5-((1R,3R)-2,2-dichloro-3-(4-fluoro-3-(trifluoromethyl)phenyl)cyclopropane-1-carboxamido)-N-(2,4-difluoro-3-(2-oxo-2-phenylacetamido)phenyl)benzamide]	50 to 100	50 to 100	A (80–100)
CS(=O)(=O)CC(=O)Nc1c(F)ccc(NC(=O)c2cc(NC(=O)[C@H]3[C@H](c4ccc(F)c(C(F)(F)F)c4)C3(Cl)Cl)ccc2Cl)c1F [F1299, 2-Chloro-5-((1R,3R)-2,2-dichloro-3-(4-fluoro-3-(trifluoromethyl)phenyl)cyclopropane-1-carboxamido)-N-(2,4-difluoro-3-(2-(methylsulfonyl)acetamido)phenyl)benzamide]	50 to 100	50 to 100	A (80–100)
O=C(Nc1c(F)ccc(NC(=O)c2cc(NC(=O)[C@H]3[C@H](c4ccc(F)c(C(F)(F)F)c4)C3(Cl)Cl)ccc2Cl)c1F)c1ccco1 [F1300, N-(3-(2-Chloro-5-((1R,3R)-2,2-dichloro-3-(4-fluoro-3-(trifluoromethyl)phenyl)cyclopropane-1-carboxamido)benzamido)-2,6-difluorophenyl)furan-2-carboxamide]	50 to 100	50 to 100	A (80–100)
O=C(Nc1ccc(F)c(NC(=O)C(F)(F)C(F)F)c1F)c1cc(NC(=O)[C@H]2[C@H](c3ccc(F)c(C(F)(F)F)c3)C2(Cl)Cl)ccc1Cl [F1301, 2-Chloro-5-((1R,3R)-2,2-dichloro-3-(4-fluoro-3-(trifluoromethyl)phenyl)cyclopropane-1-carboxamido)-N-(2,4-difluoro-3-(2,2,3,3-tetrafluoropropanamido)phenyl)benzamide]	50 to 100	50 to 100	A (80–100)
O=C1CC(C(=O)Nc2c(F)ccc(NC(=O)c3cc(NC(=O)[C@H]4[C@H](c5ccc(F)c(C(F)(F)F)c5)C4(Cl)Cl)ccc3Cl)c2F)C1 [F1303, 2-Chloro-5-((1R,3R)-2,2-dichloro-3-(4-fluoro-3-(trifluoromethyl)phenyl)cyclopropane-1-carboxamido)-N-(2,4-difluoro-3-(3-oxocyclobutane-1-carboxamido)phenyl)benzamide]	50 to 100	50 to 100	A (80–100)
CC(Cl)(Cl)C(=O)Nc1c(F)ccc(NC(=O)c2cc(NC(=O)[C@H]3[C@H](c4ccc(F)c(C(F)(F)F)c4)C3(Cl)Cl)ccc2Cl)c1F [F1351, 2-Chloro-5-((1R,3R)-2,2-dichloro-3-(4-fluoro-3-(trifluoromethyl)phenyl)cyclopropane-1-carboxamido)-N-(3-(2,2-dichloropropanamido)-2,4-difluorophenyl)benzamide]	50 to 100	50 to 100	A (80–100)
CC(F)(F)C(=O)Nc1c(F)ccc(NC(=O)c2cc(NC(=O)[C@H]3[C@H](c4ccc(F)c(C(F)(F)F)c4)C3(Cl)Cl)ccc2Cl)c1F [F1352, 2-Chloro-5-((1R,3R)-2,2-dichloro-3-(4-fluoro-3-(trifluoromethyl)phenyl)cyclopropane-1-carboxamido)-N-(3-(2,2-difluoropropanamido)-2,4-difluorophenyl)benzamide]	50 to 100	50 to 100	A (80–100)
CC(C)(Br)C(=O)Nc1c(F)ccc(NC(=O)c2cc(NC(=O)[C@H]3[C@H](c4ccc(F)c(C(F)(F)F)c4)C3(Cl)Cl)ccc2Cl)c1F [F1354, N-(3-(2-Bromo-2-methylpropanamido)-2,4-difluorophenyl)-2-chloro-5-((1R,3R)-2,2-dichloro-3-(4-fluoro-3-(trifluoromethyl)phenyl)cyclopropane-1-carboxamido)benzamide]	50 to 100	50 to 100	A (80–100)
O=C(Nc1ccc(F)c(NC(=O)C(Br)Br)c1F)c1cc(NC(=O)[C@H]2[C@H](c3ccc(F)c(C(F)(F)F)c3)C2(Cl)Cl)ccc1Cl [F1355, 2-Chloro-N-(3-(2,2-dibromoacetamido)-2,4-difluorophenyl)-5-((1R,3R)-2,2-dichloro-3-(4-fluoro-3-(trifluoromethyl)phenyl)cyclopropane-1-carboxamido)benzamide]	50 to 100	50 to 100	A (80–100)
CCC(F)(F)C(=O)Nc1c(F)ccc(NC(=O)c2cc(NC(=O)[C@H]3[C@H](c4ccc(F)c(C(F)(F)F)c4)C3(Cl)Cl)ccc2Cl)c1F [F1357, 2-Chloro-5-((1R,3R)-2,2-dichloro-3-(4-fluoro-3-(trifluoromethyl)phenyl)cyclopropane-1-carboxamido)-N-(3-(2,2-difluorobutanamido)-2,4-difluorophenyl)benzamide]	50 to 100	50 to 100	A (80–100)
CC1(C(=O)Nc2c(F)ccc(NC(=O)c3cc(NC(=O)[C@H]4[C@H](c5ccc(F)c(C(F)(F)F)c5)C4(Cl)Cl)ccc3Cl)c2F)CC1 [F1362, 2-Chloro-5-((1R,3R)-2,2-dichloro-3-(4-fluoro-3-(trifluoromethyl)phenyl)cyclopropane-1-carboxamido)-N-(2,4-difluoro-3-(1-methylcyclopropane-1-carboxamido)phenyl)benzamide]	50 to 100	50 to 100	A (80–100)
CCOCC(=O)Nc1c(F)ccc(NC(=O)c2cc(NC(=O)[C@H]3[C@H](c4ccc(F)c(C(F)(F)F)c4)C3(Cl)Cl)ccc2Cl)c1F [F1363, 2-Chloro-5-((1R,3R)-2,2-dichloro-3-(4-fluoro-3-(trifluoromethyl)phenyl)cyclopropane-1-carboxamido)-N-(3-(2-ethoxyacetamido)-2,4-difluorophenyl)benzamide]	50 to 100	50 to 100	A (80–100)
N#CCC(=O)Nc1c(F)ccc(NC(=O)c2cc(NC(=O)[C@H]3[C@H](c4ccc(F)c(C(F)(F)F)c4)C3(Cl)Cl)ccc2Cl)c1F [F1369, 2-Chloro-N-(3-(2-cyanoacetamido)-2,4-difluorophenyl)-5-((1R,3R)-2,2-dichloro-3-(4-fluoro-3-(trifluoromethyl)phenyl)cyclopropane-1-carboxamido)benzamide]	50 to 100	50 to 100	A (80–100)
